The subject of data set [1] is influenza virus A/PR/8/34 (H1N1). Briefly: organism not typed. It is filed as cell-based. The note with it: MDCK cells, A/PR/8/34 (H1N1), 5 days, CCK8; read-out: EC50.
Another data set has as its system MDCK cells. Briefly: in vitro. Type of data set: cell-based. The method, then:
Method for cytotoxicity study: The cytotoxicity assay and antiviral activity assay of the compounds were performed in parallel, except for the absence of virus, other experimental conditions were consistent with the antiviral activity assay. After 5 days of culture, the cell viability was measured using the cell viability detection kit CCK8. Raw data were used for calculating compound cytotoxicity (CC50) (see Table 1 for results).

On the set-up of data set [2]: species or system SD rats. The note with it: SD, rat, in vivo, po, 3 mg/kg. The protocol: Intragastric administration: about 4 mg of Compound III-2 was accurately weighed out and added with appropriate amount of PEG400, followed by vortex to a clean solution. An appropriate volume of 30% Solutol HS-15 aqueous solution and saline were added, and followed by vortex to give a pharmaceutical preparation of a concentration of 0.3 mg·mL^−1, with PEG400: 30% Solutol HS-15: saline=2:2:6 (v/v/v). SD rats were given a single oral administration of 3.0 mg·kg^−1 of Compounds III-2, and the concentration of Compound II-6 in the plasma of S-D rats was determined before administration and 0.25 h, 0.5 h, 1 h, 2 h, 4 h, 8 h, 12 h and 24 h after administration.

Data set [3] concerns influenza A virus (H1N1, A/WSN/33). Briefly: Efficacy on mice, IAV mouse infection model. Type of data set: in vivo, Female BALB/c mice. Particulars: 15 mpk orally twice a day. The source says:
Female BALB/c mice were inoculated with influenza A virus (H1N1, A/WSN/33) by intranasal administration to establish an IAV mouse infection model. The vehicle, Compound III-2 (15 mpk) or oseltamivir phosphate (15 mpk) were orally administered twice a day. Animal weight and survival status were monitored daily during the test, and on the 5th day, some animals were killed to take lung tissue for virus titer detection, and the remaining mice were used for survival rate monitoring. The in vivo anti-influenza virus efficacy of the test compound was determined by virus titer in lung tissue, mouse body weight change and survival rate.

Molecules are shown by their SMILES.

This note sets out measurements from US11247993B2, “Pyridone derivative, composition and use as antiviral drug thereof” (priority 2018, dated 2022).

What is called EC50 is the concentration giving half of the maximal effect. As usually defined, the CC50 is the concentration giving 50% cytotoxicity. Low readings indicate harm at low concentration, high ones better tolerance by the cells. For `O=C1c2c(O)c(=O)ccn2N([C@@H]2c3ccccc3SCc3c2ccc(F)c3F)[C@@H]2COCCN12` [Baloxavir acid, reference compound], the EC50 in data set [1] came out at 1.4 nM. Also, the CC50 in the data set on MDCK cells was greater than 1000 nM.
Broadly, the AUC(0-t) is the area under the concentration-time curve up to a stated or last time point. A lower AUC(0-t) goes with low exposure. In general, Cmax refers to the maximum level reached in the sampled fluid or tissue. What is called Tmax is the time from dosing to the highest level. In data set [2], `COC(=O)OCOc1c2n(ccc1=O)N([C@@H]1c3ccccc3SCc3c1ccc(F)c3F)[C@@H]1COC3(CC3)CN1C2=O` [III-2] showed an AUC(0-t) of 1377 ng·h/mL, a Cmax of 253 ng/mL, an F of 47.2% and a T1/2 of 3.32 h. Further, the Tmax in data set [2] is recorded as 1.67 h. In addition, in data set [3] (infected mice, during the experiment), the Body weight change entry is “remained stable”. The Survival rate in data set [3] (infected mice, to the predetermined experimental end point) amounted to 100%. In addition, in data set [3] (mice, 5th day after infection), the “Mean difference of virus titer compared with the solvent group” value is listed as 3.92 Log 10 (number of plaques per gram of lung tissue). Besides, the “Influenza Virus Titer in lung tissue” value in data set [3] (mice, 5th day after infection, 15 mg/kg) is reported as 3.28 Log10 (plaques number/gram of. In addition, the “Influenza Virus Titer in lung tissue” value in data set [3] (mice, 5th day after infection, listed as Compound III-2, 15 mg/kg) was 3.28 ± 0.2813 Log10 (plaques number/gram of.
